Earlier results on one substance are cited in patent US10590413B2, “Chiral control” (WAVE LIFE SCIENCES LTD., priority 2012, dated 2020).

Like-named read-outs stand apart in the source and are kept apart here.

Data set [1] deals with Murine IL-6 production and B cell activation. The conditions noted are these: cited from earlier work; for IL-6 (pg/ml) CH12.LX: CH12.LX cells; for IL-6 (pg/ml) SPLENIC B CELL: splenic B cells.
The test system of another data set is human PBMC. To be noted: cited from earlier work.
For data set [2] the following is noted: oligo 1619 alone or with a second "bad" CpG oligonucleotide added; cited from earlier work.
A further data set has as its system NK activity. To be noted: cited from earlier work.
Data set [3] relates to ODN-induced cytokine expression. The conditions noted are these: ELISA on supernatants from DBA/2 spleen cells, 2 × 10^7 cells/ml, 24 hr, ODN at 30 μg/ml; cited from earlier work. (ELISA stands for enzyme-linked immunosorbent assay.)
The mark [4] stands for this setting: unstimulated control ≤10 pg/ml, US 6,239,116 Table 2.
Setting [5] is: ODN 12 μg/ml, 24 hr, 10% autologous serum, level above wells with no ODN, ELISA.

For the substance “1619 (DNA TCCATGTCGTTCCTGATGCT; chemistry not given here) [Oligonucleotide 1619]”, in data set [1], the “IL-6 (pg/ml) CH12.LX” value is 1555 ± 304 pg/mL and the “IL-6 (pg/ml) SPLENIC B CELL” value was 2908 ± 129 pg/mL. Besides, in data set [1] (setting [4]), the “IL-6 (pg/ml) CH12.LX” value is 1555 ± 304 pg/mL and the “IL-6 (pg/ml) SPLENIC B CELL” value was 2908 ± 129 pg/mL. The “SI (stimulation index, [3H] uridine uptake, fold increase from unstimulated control)” value in data set [1] (cells stimulated with 20 μM CpG O-ODN, mean ± SD of triplicates) is 12.5 ± 1.0. Besides, the “SI (stimulation index, [3H] uridine uptake)” value in data set [1] (fold increase from unstimulated control, 20 μM CpG O-ODN, mean ± SD of triplicates) is recorded as 12.5 ± 1.0. The IgM in data set [1] (measured by ELISA, unstimulated culture 547 ± 82 ng/ml) is 8243 ± 698 ng/mL. Moreover, the TNF-α in the data set on human PBMC (ODN 12 μg/ml, 4 hr, 10% autologous serum, level above wells with no ODN, ELISA) is 450 pg/mL. Moreover, in the data set with human PBMC (setting [5]), the GM-CSF was 80 pg/mL, the IFN-γ was 200 pg/mL, the IL-6 is 275 pg/mL and the IL-12 is 450 pg/mL. In addition, in the data set on human PBMC, the GM-CSF is given as 80, the IFN-γ is 200, the IL-6 was 275 and the IL-12 is reported as >500. In addition, the TNF-α in the data set on human PBMC is listed as 450. Moreover, the IL-12 in pg/ml in data set [2] was 6 pg/mL. Moreover, the “LU/10^6, Mouse Cells” value in the data set on NK activity (Expt. 3, None = 0.00) is listed as 3.35 LU/10^6. In the data set on NK activity (Table 3 of U.S. Pat. No. 6,214,806), the “NK activity LU/10^5 Mouse Cells” value was 3.35 LU/10^5. Also, in the data set on NK activity (Table 9 of U.S. Pat. No. 6,207,646), the “NK activity LU/10^6 Mouse Cells” value was 3.35 LU/10^6. Besides, in data set [3], the “ODN-induced cytokine expression IFN-γ” value was 4628 pg/mL, the “ODN-induced cytokine expression IL-6” value is 1405 pg/mL and the “ODN-induced cytokine expression IL-12” value is 3130 pg/mL.
